# Measured values as given in US20230312605A1, “PYRROLO[2,1-F][1,2,4]TRIAZINES AND PREPARATION AND USES THEREOF” (BioSplice Therapeutics, Inc., priority 2021, published 2023).
# Biological target: recombinant DYRK1A kinase (Homo sapiens (Human), UniProt Q13627)
# Experiment: DYRK1A kinase assay (Ser/Thr 18 peptide Z-lyte FRET assay)
# Type: biochemical
# Conditions: recombinant DYRK1A 0.25 µg/mL, ATP 15 µM, Ser/Thr peptide 18 4 µM, one hour at room temperature; table head prints EC50, method says IC50
# Experimental: Representative compounds were screened using the assay procedure for DYRK1A kinase activity as described below.
# Each compound was dissolved in DMSO as a 10 mM stock and used to prepare compound source plates. Serial dilution (1:3, 11-point dose-response curves from 10 µM to 0.00016 µM) and compound transfer was performed using the ECHO 550 (Labcyte, Sunnyvale, CA) into 1536-well black-walled round bottom plates (Corning).
# The DYRK1A kinase assay was run using the Ser/Thr 18 peptide Z-lyte assay kit according to manufacturer’s instructions (Life Technologies- a Division of Thermo-Fisher). This is a non-radioactive assay using fluorescence resonance energy transfer (FRET) between coumarin and fluorescein to detect kinase activity which is represented as a ratio of coumarin emission/fluorescein emission.
# Briefly, recombinant DYRK1A kinase, ATP and Ser/Thr peptide 18 were prepared in 1X Kinase buffer to final concentrations of 0.25 µg/mL, 15 µM, and 4 µM respectively. The mixture was allowed to incubate with the representative compounds for one hour at room temperature. All reactions were performed in duplicate. Unphosphorylated (“0% Control”) and phosphorylated (“100% control”) forms of Ser/Thr 18 served as control reactions. Additionally, an 11-point dose-response curve of Staurosporine (1uM top) was run to serve as a positive compound control.
# After incubation, Development Reagent A was diluted in Development Buffer then added to the reaction and allowed to further incubate for one hour at room temperature. The plate was read at Ex 400 Em 455 to detect the coumarin signal and Ex 400 Em 520 to measure the signal (EnVision Multilabel Plate Reader, PerkinElmer).
# The Emission ratio (Em) was calculated as a ratio of the coumarin (C) emission signal (at 445 nm)/Fluorescein (F) emission signal (at 520 nm). The percent phosphorylation was then calculated using the following formula: [1 — ((Em ratio X F100%)—C100%)/ ((C0%—C100%) + (Em ratio X (F100% - F0%)))]. Dose-response curves were generated, and inhibitory concentration (IC50) values were calculated using non-linear regression curve fit in the Dotmatics’ Studies Software (Bishops Stortford, UK).
row,EC50 [nM],SMILES
1,9,"Cc1nc2ccc(-c3ccn4nc(N[C@H]5CC[C@@](C)(O)CC5)ncc34)nc2n1CC(F)(F)F [Compound 1868, cis-1-Methyl-4-((5-(2-methyl-3-(2,2,2-trifluoroethyl)-3H-imidazo[4,5-b]pyridin-5-yl)pyrrolo[2,1-f] [1,2,4]triazin-2-yl)amino)cyclohexan-1-ol]"
2,2,"Cc1nc2ncc(-c3ccn4nc(N[C@H]5CC[C@@](C)(O)CC5)ncc34)nc2n1CC(F)F [Compound 1974, cis-4-((5-(1-(2,2-difluoroethyl)-2-methyl-1H-imidazo[4,5-b]pyrazin-6-yl)pyrrolo[2,1-f][1,2,4]triazin-2-yl)amino)-1-methylcyclohexan-1-ol]"
3,5,"COCCO[C@H]1CC[C@H](Nc2ncc3c(-c4ccc5nc(C)n(CC(F)F)c5n4)ccn3n2)CC1 [Compound 1118, 5-(3-(2,2-Difluoroethyl)-2-methyl-3H-imidazo[4,5-b]pyridin-5-yl)-N-(trans-4-(2-methoxyethoxy)cyclohexyl)pyrrolo[2,1-f][1,2,4]triazin-2-amine]"
4,3,"CC1(C)CC(Nc2ncc3c(-c4cnc5nccn5c4)ccn3n2)C1 [Compound 237, N-(3,3-Dimethylcyclobutyl)-5-(imidazo[1,2-a]pyrimidin-6-yl)pyrrolo[2,1-f] [1,2,4]triazin-2-amine]"
5,10,"C[C@]1(O)CC[C@@H](Nc2ncc3c(-c4cnc5nccn5c4)ccn3n2)CC1 [Compound 258, (1s,4s)-4-((5-(Imidazo [1,2-a]pyrimidin-6-yl)pyrrolo[2,1-f] [1,2,4]triazin-2-yl)amino)-1-methylcyclohexan-1-ol]"
6,28,"COCCO[C@H]1CC[C@H](Nc2ncc3c(-c4cnc5nc(C)n(CC(F)F)c5c4)ccn3n2)CC1 [Compound 692, 5-(1-(2,2-Difluoroethyl)-2-methyl-1H-imidazo[4,5-b]pyridin-6-yl)-N-(trans-4-(2-methoxyethoxy)cyclohexyl)pyrrolo[2,1-f][1,2,4]triazin-2-amine]"
7,5,"CO[C@H]1CC[C@H](Nc2ncc3c(-c4cnc5nc(C)n(CC(F)F)c5c4)ccn3n2)CC1 [Compound 686, 5-(1-(2,2-Difluoroethyl)-2-methyl-1H-imidazo[4,5-b]pyridin-6-yl)-N-(trans-4-methoxycyclohexyl)pyrrolo[2,1-f][1,2,4]triazin-2-amine]"
8,48,"c1cn2cc(-c3ccn4nc(NCC5CC5)ncc34)ccc2n1 [Compound 16, N-(Cyclopropylmethyl)-5-(imidazo[1,2-a]pyridin-6-yl)pyrrolo[2,1-f][1,2,4] triazin-2-amine]"
9,4,"Cc1nc2ccc(-c3ccn4nc(NC5CCC6(CC5)CN(C)C6)ncc34)nc2n1CC(F)F [Compound 1846, 5-(3-(2,2-Difluoroethyl)-2-methyl-3H-imidazo[4,5-b]pyridin-5-yl)-N-(2-methyl-2-azaspiro[3.5]nonan-7-yl)pyrrolo[2,1-f][1,2,4]triazin-2-amine]"
10,3,"CO[C@H]1CC[C@@H](Nc2ncc3c(-c4cnc5ncccc5c4)ccn3n2)CC1 [Compound 1537, N-(cis-4-Methoxycyclohexyl)-5-(1,8-naphthyridin-3-yl)pyrrolo[2,1-f] [1,2,4]triazin-2-amine]"
11,7,"Cc1nc2ccc(-c3ccn4nc(N[C@@H]5CCN(CC(C)C)C[C@@H]5F)ncc34)nc2n1CC(F)F [Compound 1908, 5-(3-(2,2-Difluoroethyl)-2-methyl-3H-imidazo[4,5-b]pyridin-5-yl)-N-((3S,4R)-3-fluoro-1-isobutylpiperidin-4-yl)pyrrolo[2,1-f] [1,2,4]triazin-2-amine]"
12,32,"CO[C@@H]1COCC[C@H]1Nc1ncc2c(-c3ccc4nc(C)n(CC(F)F)c4n3)ccn2n1 [Compound 1867, 5-(3-(2,2-Difluoroethyl)-2-methyl-3H-imidazo[4,5-b]pyridin-5-yl)-N-((3S,4R)-3-methoxytetrahydro-2H-pyran-4-yl)pyrrolo[2,1-f][1,2,4]triazin-2-amine]"
13,4,"Cc1nc2ncc(-c3ccn4nc(NC5CCC(F)(F)CC5)ncc34)cc2n1CC(F)F [Compound 682, N-(4,4-Difluorocyclohexyl)-5-(1-(2,2-difluoroethyl)-2-methyl-1H-imidazo[4,5-b]pyridin-6-yl)pyrrolo[2,1-f] [1,2,4]triazin-2-amine]"
14,11,Cc1nc2ccc(-c3ccn4nc(NC5CCN(CCC(F)(F)F)CC5)ncc34)nc2n1CC(F)F [Compound 1851]
15,6,"Cc1nc2ccc(-c3ccn4nc(N[C@@H]5CCN(C6COC6)C[C@@H]5F)ncc34)nc2n1CC(F)F [Compound 1954, 5-(3-(2,2-Difluoroethyl)-2-methyl-3H-imidazo[4,5-b]pyridin-5-yl)-N-((3 S,4R)-3-fluoro-1-(oxetan-3-yl)piperidin-4-yl)pyrrolo[2,1-f] [1,2,4]triazin-2-amine]"
16,3,"Cc1nc2ccc(-c3ccn4nc(N[C@H]5CC[C@@H](C(=O)N6CCC6)CC5)ncc34)nc2n1CC(F)F [Compound 1896, azetidin-1-yl(cis-4-((5-(3-(2,2-difluoroethyl)-2-methyl-3H-imidazo[4,5-b]pyridin-5-yl)pyrrolo[2,1-f][1,2,4]triazin-2-yl)amino)cyclohexyl)methanone]"
17,379,"Cc1nc2nc(-c3ccn4nc(N[C@H]5CC[C@@H](OC(F)(F)F)CC5)ncc34)cnc2n1CC(F)F [Compound 1971, 5-(1-(2,2-Difluoroethyl)-2-methyl-1H-imidazo[4,5-b]pyrazin-5-yl)-N-(cis-4-(trifluoromethoxy)cyclohexyl)pyrrolo[2,1-f][1,2,4]triazin-2-amine]"
18,13,"c1cn2cc(-c3ccn4nc(NC5CC6(CNC6)C5)ncc34)cnc2n1 [Compound 1732, 5-(Imidazo[1,2-a]pyrimidin-6-yl)-N-(2-azaspiro[3.3]heptan-6-yl)pyrrolo[2,1-f][1,2,4]triazin-2-amine]"
19,5,"Cc1nc2ccc(-c3ccn4nc(NCC5CN(C)CCO5)ncc34)nc2n1CC(F)F (stereo not drawn) [Compound 1848, 5-(3-(2,2-Difluoroethyl)-2-methyl-3H-imidazo[4,5-b]pyridin-5-yl)-N-((4-methylmorpholin-2-yl)methyl)pyrrolo[2,1-f][1,2,4]triazin-2-amine]"
20,170,"CC(C)(F)CNc1ncc2c(-c3cnc4ncc(Cl)n4c3)ccn2n1 [Compound 287, 5-(3-Chloroimidazo[1,2-a]pyrimidin-6-yl)-N-(2-fluoro-2-methylpropyl) pyrrolo[2,1-f] [1,2,4]triazin-2-amine]"
21,6,"Cc1nc2ccc(-c3ccn4nc(NC[C@H](C)O)ncc34)nc2n1CC(F)F [Compound 1832, (S)-1-((5-(3-(2,2-Difluoroethyl)-2-methyl-3H-imidazo[4,5-b]pyridin-5-yl)pyrrolo [2,1-f] [1,2,4]triazin-2-yl)amino)propan-2-ol]"
22,4,"Cc1nc2ccc(-c3ccn4nc(N[C@H]5CCN(C6COC6)C[C@H]5F)ncc34)nc2n1CC(F)F [Compound 1955, 5-(3-(2,2-Difluoroethyl)-2-methyl-3H-imidazo[4,5-b]pyridin-5-yl)-N-((3R,4S)-3-fluoro-1-(oxetan-3-yl)piperidin-4-yl)pyrrolo[2,1-f][1,2,4]triazin-2-amine]"
23,33,"Cc1nc2ccc(-c3ccn4nc(N[C@H]5CC[C@@](C)(O)CC5)ncc34)nc2n1CC(C)C [Compound 1829, cis-4-((5-(3-Isobutyl-2-methyl-3H-imidazo[4,5-b]pyridin-5-yl)pyrrolo[2,1-f] [1,2,4]triazin-2-yl)amino)-1-methylcyclohexan-1-ol]"
24,3,"Cc1nc2ccc(-c3ccn4nc(NC5CC6(CCN(C)CC6)C5)ncc34)nc2n1CC(F)F [Compound 1836, 5-(3-(2,2-Difluoroethyl)-2-methyl-3H-imidazo[4,5-b]pyridin-5-yl)-N-(7-methyl-7-azaspiro[3.5]nonan-2-yl)pyrrolo[2,1-f][1,2,4]triazin-2-amine]"
25,58,"C[C@H](Nc1ncc2c(-c3cnc4nccn4c3)ccn2n1)C1CC1 [Compound 230, (S)-N-(1-Cyclopropylethyl)-5-(imidazo[1,2-a]pyrimidin-6-yl)pyrrolo[2,1-f] [1,2,4]triazin-2-amine]"
26,73,"CC(F)(F)CNc1ncc2c(-c3ccc4nccn4c3)ccn2n1 [Compound 4, N-(2,2-Difluoropropyl)-5-(imidazo [1,2-a]pyridin-6-yl)pyrrolo[2,1-f][1,2,4] triazin-2-amine]"
27,13,"Cc1nc2ccc(-c3ccn4nc(N[C@H]5CN(C6COC6)C[C@H]5F)ncc34)nc2n1CC(F)F [Compound 1944, 5-(3-(2,2-difluoroethyl)-2-methyl-3H-imidazo[4,5-b]pyridin-5-yl)-N-((3S,4R)-4-fluoro-1-(oxetan-3-yl)pyrrolidin-3-yl)pyrrolo[2,1-f][1,2,4]triazin-2-amine]"
